Experimental data published in paper PMC11420878, “Labeling of CC Chemokine Receptor 2 with a Versatile Intracellular Allosteric Probe” (ACS Chemical Biology, 2024).

What was measured:
Assay type in all cases: binding
[1] = target: T1, CC chemokine receptor 2 (CCR2) (Homo sapiens, UniProt P41597); test: [3H]CCR2-RA-[R] displacement, […] h preincubation; in-gel fluorescence labeling; design: CCR2 stably expressed in U2OS membranes; HA-CCR2 in HEK293T membranes
[2] = target: T1, CC chemokine receptor 2 (CCR2); test: [3H]CCR2-RA-[R] displacement (Ki shift), in-gel fluorescence labeling, pull-down proteomics; design: CCR2 stably expressed in U2OS membranes; HA-CCR2 in HEK293T membranes
[3] = target: T1, CC chemokine receptor 2 (CCR2); test: [3H]CCR2-RA-[R] displacement, […] h preincubation; design: CCR2 stably expressed in U2OS membranes

T1 sequence (P41597 whole entry): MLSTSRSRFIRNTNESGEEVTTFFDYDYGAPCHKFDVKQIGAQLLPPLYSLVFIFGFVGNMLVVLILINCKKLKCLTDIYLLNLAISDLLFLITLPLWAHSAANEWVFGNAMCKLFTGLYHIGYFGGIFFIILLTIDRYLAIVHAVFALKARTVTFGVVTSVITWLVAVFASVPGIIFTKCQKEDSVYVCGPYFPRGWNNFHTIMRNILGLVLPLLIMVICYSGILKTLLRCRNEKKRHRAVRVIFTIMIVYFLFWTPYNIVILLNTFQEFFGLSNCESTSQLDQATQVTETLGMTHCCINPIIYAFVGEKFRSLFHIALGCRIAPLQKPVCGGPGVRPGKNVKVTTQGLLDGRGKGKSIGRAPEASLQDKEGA

Row | Ki [1] | Ki [3] | SMILES | further results
1 | ~0.5 nM | – | C#CCOc1cc(NC(=O)C=C)ccc1Oc1ccc(Cl)cc1NS(=O)(=O)c1ccc(Cl)c(C(F)(F)F)c1 [6a] | –
2 | ~0.5 nM | – | C#CCOCCOc1cc(NC(=O)C=C)ccc1Oc1ccc(Cl)cc1NS(=O)(=O)c1ccc(Cl)c(C(F)(F)F)c1 [6b] | –
3 | – | – | C#CCOCCOCCOc1cc(NC(=O)C=C)ccc1Oc1ccc(Cl)cc1NS(=O)(=O)c1ccc(Cl)c(C(F)(F)F)c1 [6c, probe 6c] | Ki [2]: ~0.5 nM
4 | – | ~1.3 nM | C#CCOc1cc(NC(=O)CCSC#N)ccc1Oc1ccc(Cl)cc1NS(=O)(=O)c1ccc(Cl)c(C(F)(F)F)c1 [8a] | –
5 | – | ~1.3 nM | C#CCOCCOc1cc(NC(=O)CCSC#N)ccc1Oc1ccc(Cl)cc1NS(=O)(=O)c1ccc(Cl)c(C(F)(F)F)c1 [8b] | –
6 | – | ~1.3 nM | C#CCOCCOCCOc1cc(NC(=O)CCSC#N)ccc1Oc1ccc(Cl)cc1NS(=O)(=O)c1ccc(Cl)c(C(F)(F)F)c1 [8c] | –
